Reference: patent EP1377579B1 (Aventis Pharmaceuticals Inc., priority 2000, dated 2002)
Counter-ions that a name gives are not always drawn.

Assays:
MDA-MB-435 = assay: In vitro proliferation assay (MTT), MDA-MB-435; type: cell-based, human; details: Homo sapiens, MDA-MB-435, MTT assay; value (SD, n) where given; read-out: MB-435 Breast (IC50 µM)
Method in brief: (§1)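 Cells were seeded at 1000 to 2500 cells/well, allowed to attach overnight, then exposed to test compounds for 3 days. Viable cells were estimated by MTT dye reduction, with dye solubilized in DMSO and absorbance read at 570 nm; IC50s derived from raw data.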

cdk2/cyclin E = cdk2/cyclin E (Homo sapiens, UniProt P24941); assay: Cyclin-dependent kinase assay, cdk2/cyclin E; details: CDK2 IC50, nM, GST-pRb substrate, 10 µM ATP
PC-3 = assay: In vitro proliferation assay (MTT), PC-3; type: cell-based, human; details: Homo sapiens, PC-3, MTT assay; value (SD, n) where given; read-out: PC-3 Prostate (IC50 µM)
Method in brief: as §1

cdk1/cyclin B = cdk1/cyclin B (Homo sapiens, UniProt P06493); assay: Cyclin-dependent kinase assay, cdk1/cyclin B; details: CDK1 IC50, nM, Histone H1, 10 µM ATP
cdk4/cyclin D1 = cdk4/cyclin D1 (Homo sapiens, UniProt P11802); assay: Cyclin-dependent kinase assay, cdk4/cyclin D1; type: biochemical; details: cyclin D1/cdk4; GST-pRb substrate, 10 µM ATP
cdk4/cyclin D1, sequence (P11802 whole entry): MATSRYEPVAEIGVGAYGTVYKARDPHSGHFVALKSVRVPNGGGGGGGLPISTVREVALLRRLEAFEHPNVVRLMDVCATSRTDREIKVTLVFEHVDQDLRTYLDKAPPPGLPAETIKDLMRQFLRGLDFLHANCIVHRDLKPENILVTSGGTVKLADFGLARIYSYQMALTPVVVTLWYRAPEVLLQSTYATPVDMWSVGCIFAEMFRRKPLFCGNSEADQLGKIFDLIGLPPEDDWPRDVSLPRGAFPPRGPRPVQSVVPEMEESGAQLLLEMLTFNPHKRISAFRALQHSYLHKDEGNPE
cdk4/cyclin D1, sequence (P24385 whole entry partner): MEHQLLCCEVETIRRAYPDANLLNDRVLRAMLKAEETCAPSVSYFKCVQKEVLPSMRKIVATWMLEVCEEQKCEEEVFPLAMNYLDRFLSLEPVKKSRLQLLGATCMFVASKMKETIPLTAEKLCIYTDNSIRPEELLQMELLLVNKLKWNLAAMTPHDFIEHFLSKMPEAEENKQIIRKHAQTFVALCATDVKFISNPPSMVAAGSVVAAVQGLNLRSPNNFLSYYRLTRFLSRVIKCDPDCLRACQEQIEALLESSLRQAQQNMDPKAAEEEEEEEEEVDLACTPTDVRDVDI

cdk1/cyclin B, sequence (P06493 whole entry): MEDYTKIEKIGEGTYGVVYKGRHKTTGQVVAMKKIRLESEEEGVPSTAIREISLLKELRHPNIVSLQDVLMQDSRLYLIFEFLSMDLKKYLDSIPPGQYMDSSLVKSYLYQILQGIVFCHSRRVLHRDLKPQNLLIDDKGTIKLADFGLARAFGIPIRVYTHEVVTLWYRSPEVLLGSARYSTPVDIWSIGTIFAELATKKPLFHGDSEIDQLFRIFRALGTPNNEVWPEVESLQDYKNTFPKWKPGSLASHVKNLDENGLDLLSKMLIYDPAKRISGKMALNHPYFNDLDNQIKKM
cdk1/cyclin B, sequence (P14635 whole entry partner): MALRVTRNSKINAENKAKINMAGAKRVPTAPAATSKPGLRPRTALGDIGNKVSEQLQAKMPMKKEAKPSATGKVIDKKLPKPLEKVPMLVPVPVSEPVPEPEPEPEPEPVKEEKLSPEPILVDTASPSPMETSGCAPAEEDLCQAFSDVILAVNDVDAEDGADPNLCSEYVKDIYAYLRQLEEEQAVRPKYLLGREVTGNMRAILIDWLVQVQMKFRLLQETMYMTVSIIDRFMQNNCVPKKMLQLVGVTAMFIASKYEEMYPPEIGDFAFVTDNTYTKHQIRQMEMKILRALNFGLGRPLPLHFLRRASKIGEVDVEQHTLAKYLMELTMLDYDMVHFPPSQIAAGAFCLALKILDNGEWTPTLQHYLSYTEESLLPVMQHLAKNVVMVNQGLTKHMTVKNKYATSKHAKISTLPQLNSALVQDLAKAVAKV

| IC50 (MDA-MB-435) [µM] | IC50 (cdk2/cyclin E) [nM] | IC50 (PC-3) [µM] | IC50 (cdk1/cyclin B) [nM] | IC50 (cdk4/cyclin D1) [µM] | SMILES |
| --- | --- | --- | --- | --- | --- |
| 1.23 | 49 | 0.92 | 121 | 0.088 | C=CCCC(=O)N1CCC(Nc2nc(N[C@H]3CC[C@H](N)CC3)nc3c2ncn3C2CCCC2)CC1 [compound 49, trans-1-{4-[2-(4-Amino-cyclohexylamino)-9-cyclopentyl-9H-purin-6-ylamino]-piperidin-1-yl}-pent-4-en-1-one dihydrochloride] |
| 0.4 | 31 | 0.52 | 25 | 0.065 | N[C@H]1CC[C@H](Nc2nc(NC3CCN(S(=O)(=O)Cc4ccccc4)CC3)c3ncn(C4CCCC4)c3n2)CC1 [compound 119, trans-N^2-(4-Amino-cyclohexyl)-9-cyclopentyl-N^6-(1-phenylmethanesulfonyl-piperidin-4-yl)-9H-purine-2,6-diamine dihydrochloride] |
| 0.51 | 51 | 0.61 | 66 | 0.664 | N[C@H]1CC[C@H](Nc2nc(NC3CCN(C(=O)C4CCCC4)CC3)c3ncn(C4CCCC4)c3n2)CC1 [compound 39, trans-1-{4-[2-(4-Amino-cyclohexylamino)-9-cyclopentyl-9H-purin-6-ylamino]-piperidin-1-yl}-1-cyclopentyl-methanone] |
| 0.72 | 15 | 0.89 | 40 | 0.088 | N#Cc1cccc(NC(=O)N2CCC(Nc3nc(N[C@H]4CC[C@H](N)CC4)nc4c3ncn4C3CCCC3)CC2)c1 [compound 194, trans-4-[2-(4-Amino-cyclohexylamino)-9-cyclopentyl-9H-purin-6-ylamino]-piperidine-1-carboxylic acid (3-cyano-phenyl)-amide dihydrochloride] |
| 0.29 | 79 | 0.41 | 72 | 0.28 | CCCCCCNC(=O)N1CCC(Nc2nc(N[C@H]3CC[C@H](N)CC3)nc3c2ncn3C2CCCC2)CC1 [compound 185, trans-4-[2-(4-Amino-cyclohexylamino)-9-cyclopentyl-9H-purin-6-ylamino]-piperidine-1-carboxylic acid hexylamide dihydrochloride] |
| 0.28 | 38 | 0.38 | 22 | 0.038 | N[C@H]1CC[C@H](Nc2nc(NC3CCN(S(=O)(=O)/C=C/c4ccccc4)CC3)c3ncn(C4CCCC4)c3n2)CC1 [compound 118, trans-N^2-(4-Amino-cyclohexyl)-9-cyclopentyl-N^6-[1-((E)-2-phenyl-ethenesulfonyl)-piperidin-4-yl]-9H-purine-2,6-diamine dihydrochloride] |
| 0.8 | 53 | 2.29 | 8 | 0.159 | CC(C)(C)c1ccc(S(=O)(=O)N2CCC(Nc3nc(N[C@H]4CC[C@H](N)CC4)nc4c3ncn4C3CCCC3)CC2)cc1 [compound 130, trans-N^2-(4-Amino-cyclohexyl)-N^6-[1-(4-tert-butyl-benzenesulfonyl)-piperidin-4-yl]-9-cyclopentyl-9H-purine-2,6-diamine dihydrochloride] |

More lines, now with the values behind:

| SMILES | IC50 (MDA-MB-435) [µM] | IC50 (cdk2/cyclin E) [nM] | IC50 (PC-3) [µM] | IC50 (cdk1/cyclin B) [nM] | IC50 (cdk4/cyclin D1) [µM] |
| --- | --- | --- | --- | --- | --- |
| COc1ccc(S(=O)(=O)N2CCC(Nc3nc(N[C@H]4CC[C@H](N)CC4)nc4c3ncn4C3CCCC3)CC2)cc1 [compound 142, trans-N^2-(4-Amino-cyclohexyl)-9-cyclopentyl-N^6-[1-(4-methoxy-benzenesulfonyl)-piperidin-4-yl]-9H-purine-2,6-diamine dihydrochloride] | 0.38 | 9 | 0.61 | < 5 | 0.047 |
| N[C@H]1CC[C@H](Nc2nc(NC3CCN(S(=O)(=O)c4cccc(C(=O)O)c4)CC3)c3ncn(C4CCCC4)c3n2)CC1 [compound 135, dihydrochloride] | 3.38 | 4 | 4.05 | 80 | 0.062 |
| N[C@H]1CC[C@H](Nc2nc(NC3CCN(C(=O)C(O)c4ccccc4)CC3)c3ncn(C4CCCC4)c3n2)CC1 (mixture of isomers) [compound 50, (±)-trans-1-{4-[2-(4-Amino-cyclohexylamino)-9-cyclopentyl-9H-purin-6-ylamino]-piperidin-1-yl}-2-hydroxy-2-phenyl-ethanone dihydrochloride] | 1.67 | 44 | 1.58 | 43 | 0.206 |
| N[C@H]1CC[C@H](Nc2nc(NC3CCN(C(=O)C4CCCCC4)CC3)c3ncn(C4CCCC4)c3n2)CC1 [compound 55, trans-1-{4-[2-(4-Amino-cyclohexylamino)-9-cyclopentyl-9H-purin-6-ylamino]-piperidin-1-yl}-1-cyclohexyl-methanone dihydrochloride] | 0.41 | 56 | 0.57 | 99 | 0.621 |
| N[C@H]1CC[C@H](Nc2nc(NC3CCN(C(=O)Nc4cc(C(F)(F)F)cc(C(F)(F)F)c4)CC3)c3ncn(C4CCCC4)c3n2)CC1 [compound 176, trans-4-[2-(4-Amino-cyclohexylamino)-9-cyclopentyl-9H-purin-6-ylamino]-piperidine-1-carboxylic acid (3,5-bis-trifluoromethyl-phenyl)-amide dihydrochloride] | 0.51 | 378 | 0.54 | 7 | 0.898 |
| C=CCNC(=O)N1CCC(Nc2nc(N[C@H]3CC[C@H](N)CC3)nc3c2ncn3C2CCCC2)CC1 [compound 164, trans-4-[2-(4-Amino-cyclohexylamino)-9-cyclopentyl-9H-purin-6-ylamino]-piperidine-1-carboxylic acid allylamide dihydrochloride] | 5.03 | 86 | 4.99 | 151 | 0.739 |
| CCCCNC(=O)N1CCC(Nc2nc(N[C@H]3CC[C@H](N)CC3)nc3c2ncn3C2CCCC2)CC1 [compound 204, trans-4-[2-(4-Amino-cyclohexylamino)-9-cyclopentyl-9H-purin-6-ylamino]-piperidine-1-carboxylic acid butylamide dihydrochloride] | 2.53 | 51 | 2.64 | 200 | 0.039 |
| CCCCC(CC)C(=O)N1CCC(Nc2nc(N[C@H]3CC[C@H](N)CC3)nc3c2ncn3C2CCCC2)CC1 (mixture of isomers) [compound 57, (±)-trans-1-{4-[2-(4-Amino-cyclohexylamino)-9-cyclopentyl-9H-purin-6-ylamino]-piperidin-1-yl}-2-ethyl-hexan-1-one dihydrochloride] | 0.96 | 480 | 1.13 | 193 | 1.3 |
| COc1ccc(S(=O)(=O)N2CCC(Nc3nc(N[C@H]4CC[C@H](N)CC4)nc4c3ncn4C3CCCC3)CC2)cc1OC [compound 137, trans-N^2-(4-Amino-cyclohexyl)-9-cyclopentyl-N^6-[1-(3,4-dimethoxy-benzenesulfonyl)-piperidin-4-yl]-9H-purine-2,6-diamine dihydrochloride] | 0.47 | 7 | 1.15 | 26 | 0.144 |
| CC(=O)c1ccc(NC(=O)N2CCC(Nc3nc(N[C@H]4CC[C@H](N)CC4)nc4c3ncn4C3CCCC3)CC2)cc1 [compound 188, trans-4-[2-(4-Amino-cyclohexylamino)-9-cyclopentyl-9H-purin-6-ylamino]-piperidine-1-carboxylic acid (4-acetyl-phenyl)-amide dihydrochloride] | 0.48 | 31 | 0.5 | 14 | 0.17 |
| N[C@H]1CC[C@H](Nc2nc(NC3CCN(C(=O)c4cccc(Br)c4)CC3)c3ncn(C4CCCC4)c3n2)CC1 [compound 71, trans-1-{4-[2-(4-Amino-cyclohexylamino)-9-cyclopentyl-9H-purin-6-ylamino]-piperidin-1-yl}-1-(3-bromophenyl)-methanone] | 0.64 | 91 | 0.61 | 53 | 0.698 |
| CCOC(=O)N1CCC(Nc2nc(N[C@H]3CC[C@H](N)CC3)nc3c2ncn3C(C)C)CC1 [compound 104, trans-4-[2-(4-Amino-cyclohexylamino)-9-isopropyl-9H-purin-6-ylamino]-piperidine-1-carboxylic acid ethyl ester dihydrochloride] | 2.27 | 731 | 1.21 | 750 | 8 |
| CN(C)c1cccc2c(S(=O)(=O)N3CCC(Nc4nc(N[C@H]5CC[C@H](N)CC5)nc5c4ncn5C4CCCC4)CC3)cccc12 [compound 141, trans-N^2-(4-Amino-cyclohexyl)-9-cyclopentyl-N^6-[1-(5-dimethylamino-naphthalene-1-sulfonyl)-piperidin-4-yl]-9H-purine-2,6-diamine dihydrochloride] | 0.86 | 61 | 1.49 | 27 | 0.066 |
| N[C@H]1CC[C@H](Nc2nc(NC3CCN(S(=O)(=O)c4c(Cl)cccc4Cl)CC3)c3ncn(C4CCCC4)c3n2)CC1 [compound 121, trans-N^2-(4-Amino-cyclohexyl)-9-cyclopentyl-N^6-[1-(2,6-dichloro-benzenesulfonyl)-piperidin-4-yl]-9H-purine-2,6-diamine dihydrochloride] | 0.66 | 50 | 0.82 | 120 | 0.083 |
